Test results: patent US9181277B2, “Aminoquinazoline derivatives and their salts and methods of use” (SUNSHINE LAKE PHARMA CO., LTD., priority 2011, dated 2015)

target: EGFR Kinase (Homo sapiens, UniProt P00533); assay: EGFR inhibitory activity test (HTRF kinEASE STK S1 kinase assay); assay type: biochemical; settings: replicate wells, read-out: IC50(nM), Inhibitory Activity of Compounds on EGFR Kinase
Method: In a pilot study, the compounds disclosed herein were screened for their EGFR inhibitory activity. The Cisbio Research Product HTRF kinEASE STK S1 kinase assay/inhibitor screening Kit, can detect the generation of the phosphorylated substrate. Kinase, biotinylated substrate and ATP were first added into buffer solution, and the phosphorylated biotinylated substrates were formed by enzyme reaction. Then, to the above solution was added europium-labeled anti-phospho-site specific antibodies and XL665-labeled avidin. The Specific combinations of antibody with antigen, and biotin with avidin, bring the europium and XL665 closer together and resonance energy transferred. The signals at 620 nm and 665 nm were detected, and the activity of the kinase was evaluated by the ratio of the two signals value.

EGFR Kinase, sequence (P00533 25-1210): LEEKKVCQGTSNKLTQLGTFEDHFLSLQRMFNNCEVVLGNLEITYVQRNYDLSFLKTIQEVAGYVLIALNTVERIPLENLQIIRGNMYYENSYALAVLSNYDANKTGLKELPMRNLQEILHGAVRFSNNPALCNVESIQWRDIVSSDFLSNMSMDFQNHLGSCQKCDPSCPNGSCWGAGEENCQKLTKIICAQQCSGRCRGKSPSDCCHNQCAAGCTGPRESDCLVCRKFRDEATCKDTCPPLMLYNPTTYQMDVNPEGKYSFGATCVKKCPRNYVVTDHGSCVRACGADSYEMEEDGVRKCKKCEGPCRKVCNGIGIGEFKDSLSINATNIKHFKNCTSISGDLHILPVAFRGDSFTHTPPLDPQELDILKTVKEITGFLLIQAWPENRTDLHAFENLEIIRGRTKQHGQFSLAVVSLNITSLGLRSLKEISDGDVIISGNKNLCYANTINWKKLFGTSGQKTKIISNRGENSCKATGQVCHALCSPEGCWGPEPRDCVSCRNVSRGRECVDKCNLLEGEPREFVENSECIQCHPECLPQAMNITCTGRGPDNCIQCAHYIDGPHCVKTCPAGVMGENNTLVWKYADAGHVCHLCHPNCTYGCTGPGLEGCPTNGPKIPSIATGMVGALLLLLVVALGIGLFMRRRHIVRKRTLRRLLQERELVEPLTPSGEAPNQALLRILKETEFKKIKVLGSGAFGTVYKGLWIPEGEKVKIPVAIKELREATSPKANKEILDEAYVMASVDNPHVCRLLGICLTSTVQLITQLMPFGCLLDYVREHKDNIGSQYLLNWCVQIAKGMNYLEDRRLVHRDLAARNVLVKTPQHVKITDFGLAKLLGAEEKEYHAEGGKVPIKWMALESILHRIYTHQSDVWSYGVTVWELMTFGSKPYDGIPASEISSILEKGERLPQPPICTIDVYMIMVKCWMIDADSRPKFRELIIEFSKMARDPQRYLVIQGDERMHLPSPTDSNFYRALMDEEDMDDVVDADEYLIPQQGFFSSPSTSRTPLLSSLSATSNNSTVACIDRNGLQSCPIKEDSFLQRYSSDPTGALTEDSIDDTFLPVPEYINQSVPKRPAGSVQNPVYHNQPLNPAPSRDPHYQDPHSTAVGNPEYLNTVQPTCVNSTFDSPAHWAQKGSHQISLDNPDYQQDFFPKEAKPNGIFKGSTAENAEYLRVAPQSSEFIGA

| SMILES | IC50 [nM] |
| --- | --- |
| CCc1nnc2n1CCN(CCCOc1cc3c(Nc4ccc(F)c(Cl)c4)ncnc3cc1OC)C2 [Example 2, N-(3-chloro-4-fluorophenyl)-6-(3-(3-ethyl-5,6-dihydro-[1,2,4]triazolo[4,3-a]pyrazin-7(8H)-yl)propoxy)-7-methoxyquinazolin-4-amine] | > 10 |
| COc1cc2ncnc(Nc3ccc(F)c(Cl)c3)c2cc1OCCCN1CCCC2CNCC21 (stereo not shown) [Example 26, N-(3-chloro-4-fluorophenyl)-7-methoxy-6-(3-(octahydro-1H-pyrrolo[3,4-b]pyridin-1-yl)propoxy) quinazolin-4-amine] | 0.001 to 0.1 |
| COc1cc2ncnc(Nc3ccc(F)c(Cl)c3)c2cc1OCCCN1CC2OCCN(C)C2C1 (stereo not shown) [Example 15, N-(3-chloro-4-fluorophenyl)-7-methoxy-6-(3-(4-methylhexahydropyrrolo[3,4-b][1,4]oxazin-6(2H)-yl)propoxy)quinazolin-4-amine] | 0.101 to 1 |
| COc1cc2ncnc(Nc3ccc(F)c(Cl)c3)c2cc1OCCCN1CC2CCCC2C1 (stereo not shown) [Example 21, N-(3-chloro-4-fluorophenyl)-6-(3-(hexahydrocyclopenta[c]pyrrol-2(1H)-yl)propoxy)-7-methoxyquinazolin-4-amine] | 0.001 to 0.1 |
| COc1cc2ncnc(Nc3ccc(F)c(Cl)c3)c2cc1OCCCN1CCC2CCCCC2C1 (stereo not shown) [Example 35, N-(3-chloro-4-fluorophenyl)-7-methoxy-6-(3-(octahydroisoquinolin-2(1H)-yl)propoxy)quinazolin-4-amine] | 0.001 to 0.1 |
| COc1cc2ncnc(Nc3ccc(F)cc3)c2cc1OCCCN1CC2CNCC2C1 (stereo not shown) [Example 41, N-(4-fluorophenyl)-6-(3-(hexahydropyrrolo[3,4-c]pyrrol-2(1H)-yl)propoxy)-7-methoxyquinazolin-4-amine] | 0.001 to 0.1 |
| COc1cc2ncnc(Nc3ccc(F)c(Cl)c3)c2cc1OCCCN1CCc2nn(C)c(C)c2C1 [Example 39, N-(3-chloro-4-fluorophenyl)-6-(3-(2,3-dimethyl-6,7-dihydro-2H-pyrazolo[4,3-c]pyridine-5(4H)-yl)propoxy)-7-methoxyquinazolin-4-amine] | 1 to 10 |
| COc1cc2ncnc(Nc3ccc(F)c(Cl)c3)c2cc1OCCCN1C[C@@H]2C[C@]2(N(C)C)C1 [Example 5] | 0.101 to 1 |
| COc1cc2ncnc(Nc3ccc(F)c(Cl)c3)c2cc1OCCCN1CC2CCCN(C)C2C1 (stereo not shown) [Example 28, N-(3-chloro-4-fluorophenyl)-7-methoxy-6-(3-(1-methylhexahydro-1H-pyrrolo[3,4-b]pyridin-6(2H)-yl)propoxy)quinazolin-4-amine] | 0.001 to 0.1 |
| C#Cc1cccc(Nc2ncnc3cc(OC)c(OCCCN4CC5OCCOC5C4)cc23)c1 (stereo not shown) [Example 8, N-(3-ethynylphenyl)-7-methoxy-6-(3-(tetrahydro-2H-[1,4]dioxino[2,3-c]pyrrol-6(3H)-yl)propoxy)quinazolin-4-amine] | 0.001 to 0.1 |
| COc1cc2ncnc(Nc3ccc(F)c(Cl)c3)c2cc1OCCCN1CCC2NCCC2C1 (stereo not shown) [Example 19, N-(3-chloro-4-fluorophenyl)-6-(3-(hexahydro-1H-pyrrolo[3,2-c]pyridin-5(6H)-yl)propoxy)-7-methoxyquinazolin-4-amine] | 0.001 to 0.1 |
| COc1cc2ncnc(Nc3ccc(F)c(Cl)c3)c2cc1OCCCN1C[C@@H]2C[C@]2(O)C1 [Example 4, (1R,5S)-3-(3-((4-((3-chloro-4-fluorophenyl)amino)-7-methoxyquinazolin-6-yl)oxy)propyl)-3-azabicyclo[3.1.0]hexan-1-ol] | 0.001 to 0.1 |
| COc1cc2ncnc(Nc3ccc(F)c(Cl)c3)c2cc1OCCCN1CCC2OCCOC2C1 (stereo not shown) [Example 36, N-(3-chloro-4-fluorophenyl)-6-(3-(hexahydro-[1,4]dioxino[2,3-c]pyridin-6(7H)-yl)propoxy)-7-methoxyquinazolin-4-amine] | 1 to 10 |
| COc1cc2ncnc(Nc3ccc(F)cc3)c2cc1OCCCN1CC2OCCOC2C1 (stereo not shown) [Example 7, N-(4-fluorophenyl)-7-methoxy-6-(3-(tetrahydro-2H-[1,4]dioxino[2,3-c]pyrrol-6(3H)-yl)propoxy) quinazolin-4-amine] | 1 to 10 |
| COc1cc2ncnc(Nc3ccc(F)c(Cl)c3)c2cc1OCCCN1CCC2CNCC21 (stereo not shown) [Example 13, N-(3-chloro-4-fluorophenyl)-6-(3-(hexahydropyrrolo[3,4-b]pyrrol-1(2H)-yl)propoxy)-7-methoxyquinazolin-4-amine] | 0.001 to 0.1 |
| CCN1CCCC2CN(CCCOc3cc4c(Nc5ccc(F)c(Cl)c5)ncnc4cc3OC)CC21 (stereo not shown) [Example 34, N-(3-chloro-4-fluorophenyl)-6-(3-(1-ethylhexahydro-1H-pyrrolo[3,4-b]pyridin-6(2H)-yl)propoxy)-7-methoxyquinazolin-4-amine] | 0.001 to 0.1 |

| SMILES | IC50 [nM] |
| --- | --- |
| COc1cc2ncnc(Nc3ccc(F)cc3)c2cc1OCCCN1CCC2COCC2C1 (stereo not shown) [Example 43, N-(4-fluorophenyl)-6-(3-(hexahydrofuro[3,4-c]pyridin-5(3H)-yl)propoxy)-7-methoxyquinazolin-4-amine] | 0.101 to 1 |
| COc1cc2ncnc(Nc3ccc(Br)cc3F)c2cc1OCCCN1CC2OCCOC2C1 (stereo not shown) [Example 10, N-(4-bromo-2-fluorophenyl)-7-methoxy-6-(3-(tetrahydro-2H-[1,4]dioxino[2,3-c]pyrrol-6(3H)-yl)propoxy)quinazolin-4-amine] | > 10 |
| COc1cc2ncnc(Nc3ccc(F)c(Cl)c3)c2cc1OCCCN1CC2OCCOC2C1 (stereo not shown) [Example 6, N-(3-chloro-4-fluorophenyl)-7-methoxy-6-(3-(tetrahydro-2H-[1,4]dioxino[2,3-c]pyrrol-6(3H)-yl)propoxy)quinazolin-4-amine] | 0.001 to 0.1 |
| COc1cc2ncnc(Nc3ccc(F)c(Cl)c3)c2cc1OCCCN1CC2CCOCC2C1 (stereo not shown) [Example 23, N-(3-chloro-4-fluorophenyl)-6-(3-(hexahydropyrano[3,4-c]pyrrol-2(3H)-yl)propoxy)-7-methoxyquinazolin-4-amine] | 1 to 10 |
| COc1cc2ncnc(Nc3ccc(F)c(Cl)c3)c2cc1OCCCN1CCC2COCC2C1 (stereo not shown) [Example 37, N-(3-chloro-4-fluorophenyl)-6-(3-(hexahydrofuro[3,4-c]pyridin-5(3H)-yl)propoxy)-7-methoxy quinazolin-4-amine] | 1 to 10 |
| COc1cc2ncnc(Nc3ccc(F)c(Cl)c3)c2cc1OCCCN1CC2C(C1)C2N(C)C (stereo not shown) [Example 32, N-(3-chloro-4-fluorophenyl)-6-(3-(6-(dimethylamino)-3-azabicyclo[3.1.0]hexan-3-yl)propoxy)-7-methoxyquinazolin-4-amine] | 1 to 10 |
| C#Cc1cc(Nc2ncnc3cc(OC)c(OCCCN4CC5OCCOC5C4)cc23)ccc1F (stereo not shown) [Example 9, N-(3-ethynyl-4-fluorophenyl)-7-methoxy-6-(3-(tetrahydro-2H-[1,4]dioxino[2,3-c]pyrrol-6(3H)-yl)propoxy)quinazolin-4-amine] | 1 to 10 |
| COc1cc2ncnc(Nc3ccc(F)c(Cl)c3)c2cc1OCCCN1CCC2CCNCC2C1 (stereo not shown) [Example 33, N-(3-chloro-4-fluorophenyl)-7-methoxy-6-(3-(octahydro-2,7-naphthyridin-2(1H)-yl)propoxy) quinazolin-4-amine] | 0.001 to 0.1 |
| COc1cc2ncnc(Nc3ccc(F)c(Cl)c3)c2cc1OCCCN1CCC2CN(C(C)=O)CC21 (stereo not shown) [Example 14, 1-(1-(3-((4-((3-chloro-4-fluorophenyl)amino)-7-methoxyquinazolin-6-yl)oxy)propyl)hexahydropyrrolo[3,4-b]pyrrol-5(1H)-yl)ethanone] | 1 to 10 |
| COc1cc2ncnc(Nc3ccc(F)c(Cl)c3)c2cc1OCCCN1CC2CCCNC2C1 (stereo not shown) [Example 25, N-(3-chloro-4-fluorophenyl)-6-(3-(hexahydro-1H-pyrrolo[3,4-b]pyridin-6(2H)-yl)propoxy)-7-methoxyquinazolin-4-amine] | 0.001 to 0.1 |
| COc1cc2ncnc(Nc3ccc(F)c(Cl)c3)c2cc1OCCCN1CCn2c(nnc2C(F)(F)F)C1 [Example 1, N-(3-chloro-4-fluorophenyl)-7-methoxy-6-(3-(3-(trifluoromethyl)-5,6-dihydro-[1,2,4]triazolo[4,3-a]pyrazin-7(8H)-yl)propoxy)quinazolin-4-amine] | 1 to 10 |
| COc1cc2ncnc(Nc3ccc(F)c(Cl)c3)c2cc1OCCCN1CC2CNCC2C1 (stereo not shown) [Example 11, N-(3-chloro-4-fluorophenyl)-6-(3-(hexahydropyrrolo[3,4-c]pyrrol-2(1H)-yl)propoxy)-7-methoxyquinazolin-4-amine] | 0.001 to 0.1 |
| COc1cc2ncnc(Nc3ccc(F)c(Cl)c3)c2cc1OCCCN1CCC2CCNC2C1 (stereo not shown) [Example 17, N-(3-chloro-4-fluorophenyl)-6-(3-(hexahydro-1H-pyrrolo[2,3-c]pyridin-6(2H)-yl)propoxy)-7-methoxyquinazolin-4-amine] | 0.001 to 0.1 |
| COc1cc2ncnc(Nc3ccc(F)c(Cl)c3)c2cc1OCCCN1CC2CN(C)CC2C1 (stereo not shown) [Example 12, N-(3-chloro-4-fluorophenyl)-7-methoxy-6-(3-(5-methylhexahydropyrrolo[3,4-c]pyrrol-2(1H)-yl)propoxy)quinazolin-4-amine] | 0.101 to 1 |
| COc1cc2ncnc(Nc3ccc(F)c(Cl)c3)c2cc1OCCCN1CC2OCCN(Cc3ccccc3)C2C1 (stereo not shown) [Example 16, 6-(3-(4-benzylhexahydropyrrolo[3,4-b][1,4]oxazin-6(2H)-yl)propoxy)-N-(3-chloro-4-fluorophenyl)-7-methoxyquinazolin-4-amine] | 1 to 10 |
